Reference: patent publication US8133847B2, “Pyrido[2,3-B]pyrazine derivatives useful as herbicidal compounds” (Syngenta Limited, priority 2006, dated 2012)

Experiments:
Type in all cases: in vivo
[1] = tested on: Chenopodium album (CHEAL); assay: Example B3 herbicidal action, post-emergence; conditions: 1000 g/ha, after 13 days, 100=total damage to plant, 0=no damage to plant
Procedure: (§1) Seeds of a variety of test species were sown in sterilised compost in small pots. After cultivation for seven days (post-emergence) in controlled conditions in the glasshouse (at 24/16° C., day/night; 14 hours light; 65% humidity) the plants were sprayed with 1 mg of the active ingredient, formulated in 2.5 ml acetone/water (50:50) solution, which is equivalent to 1000 g/ha. Once the foliage was dry, the pots were kept in the glasshouse (at 24/16° C., day/night; 14 hours light; 65% humidity), and were watered twice daily. After 13 days the test was evaluated (100=total damage to plant, 0=no damage to plant).

[2] = tested on: Alopecurus myosuroides (ALOMY); assay: Example B3 herbicidal action, post-emergence; conditions: 1000 g/ha, after 13 days, 100=total damage to plant, 0=no damage to plant
Procedure: as §1

[3] = tested on: Digitaria sanguinalis (DIGSA); assay: Example B3 herbicidal action, post-emergence; conditions: 1000 g/ha, after 13 days, 100=total damage to plant, 0=no damage to plant
Procedure: as §1

[4] = tested on: Amaranthus retroflexus (AMARE); assay: Example B3 herbicidal action, post-emergence; conditions: 1000 g/ha, after 13 days, 100=total damage to plant, 0=no damage to plant
Procedure: as §1

[5] = tested on: Solanum nigrum (SOLNI); assay: Example B2 herbicidal action, post-emergence, pots in glasshouse; conditions: Application post-emergence, evaluated after 13 days
Procedure: (§2) Seeds of a variety of test species were sown in standard soil in pots. After 8 days cultivation (post-emergence) under controlled conditions in a glasshouse (at 24/16° C., day/night; 14 hours light; 65% humidity), the plants were sprayed with an aqueous spray solution derived from the formulation of the technical active ingredient in acetone/water (50:50) solution containing 0.5% Tween 20 (polyoxyethylene sorbitan monolaurate, CAS RN 9005-64-5). The test plants were then grown in a glasshouse under controlled conditions in a glasshouse (at 24/16° C., day/night; 14 hours light; 65% humidity) and watered twice daily. After 13 days, the test was evaluated (100=total damage to plant; 0=no damage to plant).

[6] = tested on: Ipomea hederaceae (IPOHE); assay: as above; conditions: Application post-emergence, evaluated after 13 days (100=total damage to plant; 0=no damage to plant)
Procedure: as §2

[7] = tested on: Echinochloa crusgalli (ECHCG); assay: as above; conditions: Application post-emergence, evaluated after 13 days (100=total damage to plant; 0=no damage to plant)
Procedure: as §2

[8] = tested on: Setaria faberi (SETFA); assay: as above; conditions: Application post-emergence, evaluated after 13 days (100=total damage to plant; 0=no damage to plant)
Procedure: as §2

[9] = tested on: Amaranthus retroflexus (AMARE); assay: as above; conditions: Application post-emergence, evaluated after 13 days (100=total damage to plant; 0=no damage to plant)
Procedure: as §2

Row | Structure (SMILES) | damage to plant, Chenopodium album (CHEAL) [1] | damage to plant, Alopecurus myosuroides (ALOMY) [2] | damage to plant, Digitaria sanguinalis (DIGSA) [3] | damage to plant, Amaranthus retroflexus (AMARE) [4] | damage to plant, Solanum nigrum (SOLNI) [5] | damage to plant, Ipomea hederaceae (IPOHE) [6] | damage to plant, Echinochloa crusgalli (ECHCG) [7] | damage to plant, Setaria faberi (SETFA) [8] | damage to plant, Amaranthus retroflexus (AMARE) [9]
1 | COc1cccc(-c2c(O)c3nccnc3[nH]c2=O)c1OC [Compound A41] | 6 | 3 | 6 | 0 | – | – | – | – | –
2 | O=c1[nH]c2nccnc2c(O)c1-c1ccc(C(F)(F)F)cc1Br [Compound A43] | 8 | 0 | 0 | 7 | – | – | – | – | –
3 | CC(C)(C)C(=O)Oc1c(-c2ccc(C(F)(F)F)cc2Br)c(=O)[nH]c2nccnc12 [Compound B54] | 8 | 0 | 0 | 3 | – | – | – | – | –
4 | CC(=O)Oc1c(-c2ccc(Cl)cc2Cl)c(=O)n(C(C)C)c2nccnc12 [Compound C7] | 7 | 0 | 3 | 9 | – | – | – | – | –
5 | CCn1c(=O)c(-c2c(Cl)ccc(Cl)c2Cl)c(OC(=O)C(C)C)c2nccnc21 [Compound C107] | 10 | 0 | 2 | 10 | – | – | – | – | –
6 | CCn1c(=O)c(-c2cccc(C(F)(F)F)c2Cl)c(OC(=O)C(C)(C)C)c2nccnc21 [Compound C132] | 8 | 0 | 0 | 10 | – | – | – | – | –
7 | CCn1c(=O)c(-c2ccc(C(F)(F)F)cc2[N+](=O)[O-])c(OC(=O)C(C)(C)C)c2nccnc21 [Compound C141] | 7 | 0 | 0 | 10 | – | – | – | – | –
8 | CC(C)C(=O)Oc1c(-c2cc(F)c(Cl)cc2Cl)c(=O)n(C)c2nccnc12 [Compound C148] | – | – | – | – | 6 | 7 | 6 | 4 | 9
9 | Cn1c(=O)c(-c2cc(F)c(Cl)cc2Cl)c(OC(=O)C(C)(C)C)c2nccnc21 [Compound C149] | – | – | – | – | 7 | 5 | 3 | 3 | 9
10 | CCn1c(=O)c(-c2cc(F)ccc2Cl)c(OC(=O)C(C)C)c2nccnc21 [Compound C150] | – | – | – | – | 10 | 9 | 3 | 6 | 10
11 | CCn1c(=O)c(-c2cc(F)ccc2Cl)c(OC(=O)C(C)(C)C)c2nccnc21 [Compound C151] | – | – | – | – | 6 | 4 | 0 | 0 | 7
12 | CCn1c(=O)c(-c2cc(F)c(Cl)cc2Cl)c(OC(=O)C(C)C)c2nccnc21 [Compound C152] | – | – | – | – | 9 | 6 | 4 | 2 | 10
13 | CCn1c(=O)c(-c2cc(F)c(Cl)cc2Cl)c(OC(=O)C(C)(C)C)c2nccnc21 [Compound C153] | – | – | – | – | 8 | 5 | 1 | 1 | 9
14 | CCn1c(=O)c(-c2c(F)ccc(Br)c2Cl)c(OC(=O)C(C)C)c2nccnc21 [Compound C154] | – | – | – | – | 10 | 9 | 3 | 0 | 10
15 | CCn1c(=O)c(-c2c(F)ccc(Br)c2Cl)c(OC(=O)C(C)(C)C)c2nccnc21 [Compound C155] | – | – | – | – | 10 | 9 | 3 | 0 | 10
16 | CCn1c(=O)c(-c2cc(-c3ccc(Cl)cc3)ccc2C)c(OC(=O)C(C)C)c2nccnc21 [Compound C156] | 0 | 8 | 3 | 0 | – | – | – | – | –
17 | Cn1c(=O)c(-c2c(F)c([N+](=O)[O-])cc(F)c2Cl)c(OC(=O)C(C)(C)C)c2nccnc21 [Compound C157] | 8 | 0 | 0 | 6 | – | – | – | – | –
18 | COc1ccc(OC(F)(F)F)cc1-c1c(OC(=O)C(C)C)c2nccnc2n(C)c1=O [Compound C159] | – | – | – | – | 8 | 2 | 9 | 7 | 9
19 | CCn1c(=O)c(-c2cc(OC(F)(F)F)ccc2OC)c(OC(=O)C(C)C)c2nccnc21 [Compound C160] | – | – | – | – | 9 | 7 | 8 | 6 | 10
20 | Cn1c(=O)c(-c2cc(F)c(F)cc2Cl)c(OC(=O)C(C)(C)C)c2nccnc21 [Compound C162] | – | – | – | – | 10 | 7 | 8 | 7 | 9
21 | Cn1c(=O)c(-c2c(F)ccc(Cl)c2Cl)c(OC(=O)C(C)(C)C)c2nccnc21 [Compound C163] | – | – | – | – | 9 | 9 | 1 | 0 | 6
22 | CC(C)C(=O)Oc1c(-c2ccccc2OC(F)F)c(=O)n(C)c2nccnc12 [Compound C164] | – | – | – | – | 8 | 8 | 3 | 4 | 9
23 | CCn1c(=O)c(-c2ccccc2OC(F)F)c(OC(=O)C(C)C)c2nccnc21 [Compound C165] | – | – | – | – | 10 | 7 | 1 | 2 | 9
24 | CCn1c(=O)c(-c2cc(OC(F)(F)F)ccc2OC)c(OC(=O)C(C)(C)C)c2nccnc21 [Compound C167] | – | – | – | – | 9 | 5 | 5 | 2 | 10
25 | Cn1c(=O)c(-c2ccccc2OC(F)F)c(OC(=O)C(C)(C)C)c2nccnc21 [Compound C168] | – | – | – | – | 8 | 5 | 3 | 2 | 10
26 | CCn1c(=O)c(-c2ccccc2OC(F)F)c(OC(=O)C(C)(C)C)c2nccnc21 [Compound C169] | – | – | – | – | 9 | 7 | 0 | 0 | 9
27 | Cc1cnc2c(OC(=O)C(C)(C)C)c(-c3c(F)ccc(F)c3Cl)c(=O)n(C)c2n1 [Compound C170] | – | – | – | – | 6 | 4 | 8 | 7 | 8
28 | Cc1cc(C)c(-c2c(O)c3nccnc3n(C)c2=O)c(C)c1 [Compound D7] | – | – | – | – | 10 | 9 | 10 | 10 | 10
29 | CCn1c(=O)c(-c2c(Cl)cc(OC(F)(F)F)cc2Cl)c(O)c2nccnc21 [Compound D11] | – | – | – | – | 10 | 10 | 10 | 9 | 10
